Test results: article PMC9864514, “Evaluation of the Local Anesthetic Activity, Acute Toxicity, and Structure–Toxicity Relationship in Series of Synthesized 1-Aryltetrahydroisoquinoline Alkaloid Derivatives In Vivo and In Silico” (Molecules, 2023)
Entries after “also recorded” stand apart in the source; their conditions may differ.

Assays:
Format in all cases: in vivo
[1] = Acute toxicity and resorptive action in white mice, intragastric administration; conditions: mouse, in vivo, po, intragastric administration, N = 10, Litchfield–Wilcoxon
Experimental: (§1) The acute toxicity and resorptive action were determined in white mice weighing 20–24 g by gradual oral administration at doses of 1–5000 mg/kg.
(§2) The animals were kept under standard nursery conditions with a natural 12-h light-dark cycle, at an air temperature of 20 ± 2 °C. The animals had unlimited access to food and water. The experiments were performed in accordance with the International Convention for the Protection of Vertebrate Animals used for Experimental and Scientific Purposes (Strasbourg, 1986). Each substance was tested on 10 mice and LD50 was determined graphically by the well-known Litchfield–Wilcoxon method.

[2] = test system: rabbit eye cornea; assay: Local anesthetic activity, rabbit eye cornea terminal anesthesia test; conditions: for Onset of Anesthesia / Total Duration of Anesthesia / Duration of Complete Anesthesia / Duration of complete anesthesia, times longer than lidocaine: rabbit corneal model; for Onset of Anesthesia / Total Duration of Anesthesia / Duration of Complete Anesthesia: 1% aqueous solution; for Duration of Complete Anesthesia: percentage of the anesthetic activity of lidocaine (=100%); for Duration of complete anesthesia, times longer than lidocaine: 1% concentration; for Local irritant effects on rabbit eyes: concentrations studied
Experimental: Local anesthetic activity was evaluated using the rabbit eye cornea terminal anesthesia test on 2.0–2.5 kg male chinchilla rabbits after introduction of total 0.4 mL (0.2 mL twice with an interval of 30 s) of 1.0 % solutions of the studied substances. Lidocaine was used as an etalon drug. Each substance was tested on three rabbits.

[3] = test system: white mice; assay: Acute toxicity and resorptive action in white mice, intragastric administration; conditions: for Decrease of acute toxicity compared with 3a: intragastric, relative to parent compound 3a
Experimental: as §1, §2

What does the source list for `COc1cc2c(cc1OC)C(c1ccccc1)NCC2` (centres unmarked) [Compound 3a, 1-(Phenyl)-6,7-dimethoxy-1,2,3,4-tetrahydroisoquinoline]?
LD50 [1]: 280 mg/kg; Onset of Anesthesia [2]: 3.0 ± 1.1 min; Total Duration of Anesthesia [2]: 53.0 ± 4.6 min; Duration of Complete Anesthesia [2]: +50%

What does the source list for `COc1cc2c(cc1OC)C(c1ccccc1O)NCC2` (centres unmarked) [Compound 3b, 1-(2′-Hydroxyphenyl)-6,7-dimethoxy-1,2,3,4-tetrahydroisoquinoline]?
LD50 [1]: 375 mg/kg; Decrease of acute toxicity compared with 3a [3]: did not result in a significant decrease of toxicity; Onset of Anesthesia [2]: 1.0 ± 0.4 min; Total Duration of Anesthesia [2]: 44.0 ± 1.5 min; Duration of Complete Anesthesia [2]: +50%

With `COc1ccc(C2NCCc3cc(OC)c(OC)cc32)cc1O` (centres unmarked) [Compound 3c, 1-(3′-Hydroxy-4′-methoxyphenyl)-6,7-dimethoxy-1,2,3,4-tetrahydroisoquinoline] as the molecule, how does the LD50 [1] read?
Its LD50 is 980 mg/kg.

And the “Decrease of acute toxicity compared with 3a” value (shortened to “Decrease of acute toxicity”) [3]?
The value was 3.5 fold.

And the “Onset of Anesthesia” value [2]?
The value was 3.0 ± 0.8 min.

What about the “Total Duration of Anesthesia” value [2] of the same molecule?
Its value is 70.0 ± 4.5 min.

What about the “Duration of Complete Anesthesia” value [2] of the same molecule?
Its value is “+40%”.

Which results are given for `COc1ccc(C2NCCc3cc(OC)c(OC)cc32)cc1OC` (centres unmarked) [Compound 3d, 1-(3′,4′-Dimethoxyphenyl)-6,7-dimethoxy-1,2,3,4-tetrahydroisoquinoline]?
LD50 [1]: 670 mg/kg; Decrease of acute toxicity compared with 3a [3]: 2.5–2.6 fold; Onset of Anesthesia [2]: 2.0 ± 0.7 min; Total Duration of Anesthesia [2]: 70.0 ± 2.1 min; Duration of Complete Anesthesia [2]: +60%

For `COc1cc2c(cc1OC)C(c1ccc(O)c(Br)c1)NCC2` (centres unmarked) [Compound 3e, 1-(3′-Bromo-4′-hydroxyphenyl)-6,7-dimethoxy-1,2,3,4-tetrahydroisoquinoline], which LD50 [1] is on record?
Its LD50 is 3850 mg/kg.

What about the “Decrease of acute toxicity” value [3] of the same molecule?
The value was 13.75 fold.

And the “Onset of Anesthesia” value [2]?
Its value is 5.0 ± 0.9 min.

And the “Total Duration of Anesthesia” value [2]?
Its value is 80.0 ± 3.2 min.

What about the “Duration of Complete Anesthesia” value [2] of the same molecule?
Its value is “+49%”.

What does the source list for `COc1cc2c(cc1OC)C(c1cc(Br)ccc1O)NCC2` (centres unmarked) [Compound 3f, 1-(5′-Bromo-2′-hydroxyphenyl)-6,7-dimethoxy-1,2,3,4-tetrahydroisoquinoline]?
LD50 [1]: 305 mg/kg; Decrease of acute toxicity compared with 3a [3]: did not result in a significant decrease of toxicity; Onset of Anesthesia [2]: 1.0 ± 0.5 min; Total Duration of Anesthesia [2]: 64.0 ± 3.8 min; Duration of complete anesthesia, times longer than lidocaine [2]: 1.6 times

With `COc1cc(Br)c(C2NCCc3cc(OC)c(OC)cc32)cc1OC` (centres unmarked) [Compound 3g, 1-(2′-Bromo-4′,5′-dimethoxyphenyl)-6,7-dimethoxy-1,2,3,4-tetrahydroisoquinoline] as the molecule, how does the LD50 [1] read?
Its LD50 is 290 mg/kg.

What about the “Decrease of acute toxicity” value [3] of the same molecule?
The value was “no significant change in acute toxicity”.

What about the “Onset of Anesthesia” value [2] of the same molecule?
Its value is 2.0 ± 1.0 min.

What about the “Total Duration of Anesthesia” value [2] of the same molecule?
The value was 44.0 ± 3.5 min.

And the “Duration of Complete Anesthesia” value [2]?
Its value is “+90%”.

With `COc1cc(Br)c(C2NCCc3cc(OC)c(OC)cc32)cc1O` (centres unmarked) [Compound 3h, 1-(2′-Bromo-5′-hydroxy-4′-methoxyphenyl)-6,7-dimethoxy-1,2,3,4-tetrahydroisoquinoline] as the molecule, how does the LD50 [1] read?
The LD50 was 550 mg/kg.

What about the “Decrease of acute toxicity” value [3] of the same molecule?
Its value is “about 2 fold”.

And the “Onset of Anesthesia” value [2]?
The value was 1.0 ± 0.4 min.

What about the “Total Duration of Anesthesia” value [2] of the same molecule?
Its value is 40.0 ± 3.2 min.

And the “Duration of Complete Anesthesia” value [2]?
Its value is “+170%”.

And the “Duration of complete anesthesia, times longer than lidocaine” value (“Duration … times longer than lidocaine” below) [2]?
Its value is 1.7 times.

Which results are given for `COc1cc2c(cc1OC)C(c1ccc3c(c1)OCO3)NCC2` (centres unmarked) [Compound 3i, 1-(3′,4′-Methylenedioxyphenyl)-6,7-dimethoxy-1,2,3,4-tetrahydroisoquinoline]?
LD50 [1]: 280 mg/kg; Decrease of acute toxicity compared with 3a [3]: did not lead to a change in acute toxicity; Onset of Anesthesia [2]: 2.0 ± 0.4 min; Total Duration of Anesthesia [2]: 57.0 ± 3.7 min; Duration of Complete Anesthesia [2]: +80%

Which results are given for `COc1cc2c(cc1OC)C(c1cc3c(cc1Br)OCO3)NCC2` (centres unmarked) [Compound 3j, 1-(2′-Bromo-4′,5′-methylenedioxyphenyl)-6,7-dimethoxy-1,2,3,4-tetrahydroisoquinoline]?
LD50 [1]: 730 mg/kg; Decrease of acute toxicity compared with 3a [3]: 2.5 fold; Onset of Anesthesia [2]: 2.0 ± 1.0 min; Total Duration of Anesthesia [2]: 52.0 ± 4.0 min; Duration of Complete Anesthesia [2]: +90%

For `COc1cc2c(cc1OC)C(c1cc3c(cc1Cl)OCO3)NCC2` (centres unmarked) [Compound 3k, 1-(4′,5′-Methylenedioxy-2′-chlorophenyl)-6,7-dimethoxy-1,2,3,4-tetrahydroisoquinoline], which LD50 [1] is on record?
Its LD50 is 520 mg/kg.

And the “Decrease of acute toxicity” value [3]?
The value was 1.86 fold.

And the “Onset of Anesthesia” value [2]?
The value was 2.0 ± 1.2 min.

And the “Total Duration of Anesthesia” value [2]?
The value was 43.0 ± 4.5 min.

And the “Duration of Complete Anesthesia” value [2]?
Its value is “+90%”.

For `COc1cc2c(cc1OC)C(c1cc(Br)c(O)c(OC)c1)NCC2` (centres unmarked) [Compound 3l, 1-(5′-Bromo-4′-hydroxy-3′-methoxyphenyl)-6,7-dimethoxy-1,2,3,4-tetrahydroisoquinoline], which LD50 [1] is on record?
The LD50 was 1560 mg/kg.

What about the “Decrease of acute toxicity” value [3] of the same molecule?
Its value is 5.6 fold.

What about the “Onset of Anesthesia” value [2] of the same molecule?
Its value is 5.0 ± 1.2 min.

And the “Total Duration of Anesthesia” value [2]?
The value was 89.0 ± 3.0 min.

What about the “Duration of Complete Anesthesia” value [2] of the same molecule?
The value was “+140%”.

And the “Duration … times longer than lidocaine” value [2]?
Its value is 1.4 times.

Which LD50 [1] does the source give for `COc1cc2c(cc1OC)C(c1ccc([N+](=O)[O-])cc1)NCC2` (centres unmarked) [Compound 3m, 1-(4′-Nitrophenyl)-6,7-dimethoxy-1,2,3,4-tetrahydroisoquinoline] here?
Its LD50 is 1950 mg/kg.

And the “Onset of Anesthesia” value [2]?
Its value is 3.0 ± 0.4 min.

And the “Total Duration of Anesthesia” value [2]?
Its value is 48.0 ± 2.8 min.

What about the “Duration of Complete Anesthesia” value [2] of the same molecule?
The value was “+80%”.

For `COc1cc2c(cc1OC)C(c1cccc([N+](=O)[O-])c1)NCC2` (centres unmarked) [Compound 3n, 1-(3′-Nitrophenyl)-6,7-dimethoxy-1,2,3,4-tetrahydroisoquinoline], which LD50 [1] is on record?
Its LD50 is 460 ± 598 mg/kg.

And the LD50 ([3]; intragastric administration, N = 10, Litchfield–Wilcoxon)?
The LD50 was 525 (460.5 ± 598.5) mg/kg.

What about the “Onset of Anesthesia” value [2] of the same molecule?
Its value is 3.0 ± 1.0 min.

And the “Total Duration of Anesthesia” value [2]?
The value was 37.0 ± 3.2 min.

And the “Duration of Complete Anesthesia” value [2]?
The value was “+260%”.

And the “Duration … times longer than lidocaine” value [2]?
The value was 2.6 times.

What about the “Local irritant effects on rabbit eyes” value [2] of the same molecule?
The value was “eye irritation and redness; also recorded: reversible irritation and redness of the eyes”.

With `COc1cc2c(cc1OC)C(c1cccc(Br)c1)NCC2` (centres unmarked) [Compound 3o, 1-(3′-Bromophenyl)-6,7-dimethoxy-1,2,3,4-tetrahydroisoquinoline] as the molecule, how does the LD50 [1] read?
The LD50 was 710 mg/kg.

And the “Decrease of acute toxicity” value [3]?
The value was 2.5–2.6 fold.

And the “Onset of Anesthesia” value [2]?
Its value is 2.0 ± 0.4 min.

And the “Total Duration of Anesthesia” value [2]?
Its value is 115.0 ± 3.8 min.

And the “Duration of Complete Anesthesia” value [2]?
Its value is “+130%”.

With `COc1cc2c(cc1OC)C(c1ccccc1OC)NCC2` (centres unmarked) [Compound 3p, 1-(2′-Methoxyphenyl)-6,7-dimethoxy-1,2,3,4-tetrahydroisoquinoline] as the molecule, how does the LD50 [1] read?
The LD50 was 300 mg/kg.

And the “Decrease of acute toxicity” value [3]?
The value was “did not result in a significant decrease of toxicity”.

What about the “Onset of Anesthesia” value [2] of the same molecule?
The value was 3.0 ± 0.8 min.

And the “Total Duration of Anesthesia” value [2]?
Its value is 67.0 ± 3.6 min.

And the “Duration of Complete Anesthesia” value [2]?
The value was “+300%”.

And the “Duration … times longer than lidocaine” value [2]?
Its value is 3.0 times.

For `COc1cc2c(cc1OC)C(c1ccc(N(C)C)cc1)NCC2` (centres unmarked) [Compound 3q, 1-(4′-Dimethylaminophenyl)-6,7-dimethoxy-1,2,3,4-tetrahydroisoquinoline], which LD50 [1] is on record?
The LD50 was 1250 mg/kg.

What about the “Decrease of acute toxicity” value [3] of the same molecule?
The value was ~4.5 fold.

What about the “Onset of Anesthesia” value [2] of the same molecule?
Its value is 2.0 ± 0.6 min.

What about the “Total Duration of Anesthesia” value [2] of the same molecule?
The value was 45.0 ± 4.1 min.

What about the “Duration of Complete Anesthesia” value [2] of the same molecule?
The value was “+220%”.

And the “Duration … times longer than lidocaine” value [2]?
The value was 2.2 times.

For `COc1cc2c(cc1OC)C(c1ccc(Cl)cc1)NCC2` (centres unmarked) [Compound 3r, 1-(4′-Chlorophenyl)-6,7-dimethoxy-1,2,3,4-tetrahydroisoquinoline], which LD50 [1] is on record?
The LD50 was 740 mg/kg.

And the “Decrease of acute toxicity” value [3]?
The value was 2.5–2.6 fold.

What about the “Onset of Anesthesia” value [2] of the same molecule?
Its value is 2.0 ± 0.6 min.

What about the “Total Duration of Anesthesia” value [2] of the same molecule?
Its value is 35.0 ± 3.4 min.

And the “Duration of Complete Anesthesia” value [2]?
Its value is “+150%”.

And the “Local irritant effects on rabbit eyes” value [2]?
Its value is “eye irritation and redness; also recorded: reversible irritation and redness of the eyes”.

What does the source list for `COc1cc2c(cc1OC)C(c1ccc(N)cc1)NCC2` (centres unmarked) [Compound 4a, 1-(4′-Aminophenyl)-6,7-dimethoxy-1,2,3,4-tetrahydroisoquinoline]?
LD50 [1]: 1050 mg/kg; Decrease of acute toxicity compared with 3a [3]: 3.75 fold; Onset of Anesthesia [2]: 2.0 ± 0.7 min; Total Duration of Anesthesia [2]: 25.0 ± 4.0 min; Duration of Complete Anesthesia [2]: +40%; Local irritant effects on rabbit eyes [2]: eye irritation and redness; also recorded: reversible irritation and redness of the eyes

With `COc1cc2c(cc1OC)C(c1cccc(N)c1)NCC2` (centres unmarked) [Compound 4b, 1-(3′-Aminophenyl)-6,7-dimethoxy-1,2,3,4-tetrahydroisoquinoline] as the molecule, how does the LD50 [1] read?
Its LD50 is 750 mg/kg.

And the “Onset of Anesthesia” value [2]?
The value was 3.0 ± 0.7 min.

And the “Total Duration of Anesthesia” value [2]?
The value was 44.0 ± 4.1 min.

And the “Duration of Complete Anesthesia” value [2]?
The value was “+0%”.

With `CCN(CC)CC(=O)Nc1c(C)cccc1C` [Lidocaine, reference compound] as the molecule, how does the “Onset of Anesthesia” value [2] read?
Its value is 5.0 ± 0.5 min.

And the “Total Duration of Anesthesia” value [2]?
The value was 52.7 ± 4.9 min.
